Data set [1] has as its system Fusarium nivale (var. majus). Briefly: Fusarium nivale (var. majus) test (wheat) / preventive. Type of data set: in vivo. The note with it: 500 ppm of active ingredient, evaluated 5 days after inoculation. The source says:
Solvent: 49 parts by weight of N,N-dimethylacetamide Emulsifier: 1 part by weight of alkylaryl polyglycol ether […] To test for preventive activity, young plants are sprayed with the preparation of active compound or active compound combination at the stated rate of application. After the spray coating has been dried, the plants are slightly injured by using a sandblast and afterwards they are sprayed with a conidia suspension of Fusarium nivale (var. majus). The plants are placed in the greenhouse under a translucent incubation cabinet at a temperature of approximately 10° C. and a relative atmospheric humidity of approximately 100%.

A further data set deals with Phakopsora pachyrhizi. Briefly: In vivo Phakopsora test (soybeans) / preventive. The note with it: 10 ppm of active ingredient, evaluated 7 days after inoculation.
In the next data set the test system is Botrytis cinerea. Briefly: In vivo preventive test on Botrytis cinerea (grey mould), gherkin plants. The note with it: 500 ppm, preventive spray, grading 4 to 5 days after contamination. On the procedure:
(§1) The active ingredients tested are prepared by homogenization in a mixture of acetone/tween/DMSO and then diluted with water to obtain the desired active material concentration.
(§2) Gherkin plants (“Vert petit de Paris” variety), sown in starter cups on a 50/50 peat soil-pozzolana substrate and grown at 24° C., are treated at the Z11 cotyledon stage by spraying with the active ingredient prepared as described above. Plants, used as controls, are treated with the mixture of acetone/tween/DMSO/water not containing the active material.
After 24 hours, the plants are contaminated by spraying the cotyledons with an aqueous suspension of cryopreserved Botrytis cinerea spores (50 000 spores per ml). The spores are suspended in a nutrient solution composed of 10 g/L of PDB, 50 g/L of D-Fructose, 2 g/L of NH4NO3 and 1 g/L of KH2PO4. The contaminated gherkin plants are incubated at 17° C. and at 90% relative humidity.
Grading (% of efficacy) is carried out 4 to 5 days after the contamination, in comparison with the control plants.

The nature of data set [2]: logP by HPLC on reversed phase columns (EEC directive 79/831 Annex V.A8). Format: physicochemical. The note with it: method [a]: LC-MS at pH 2.7, 0.1% formic acid in water / acetonitrile. On the procedure:
Measurement of log P values was performed according EEC directive 79/831 Annex V.A8 by HPLC (High Performance Liquid Chromatography) on reversed phase columns with the following methods: ^[a] Measurement of LC-MS was done at pH 2.7 with 0.1% formic acid in water and with acetonitrile (contains 0.1% formic acid) as eluent with a linear gradient from 10% acetonitrile to 95% acetonitrile. ^[b] Measurement with LC-MS was done at pH 7.8 with 0.001 molar ammonium hydrogen carbonate solution in water as eluent with a linear gradient from 10% acetonitrile to 95% acetonitrile.

The test system of a further data set is Pyrenophora teres. Briefly: In vivo preventive test on Pyrenophora teres (net blotch on barley). The note with it: 500 ppm, barley plants, preventive spray, grading 14 days after contamination. As to the method: Barley plants (“Plaisant” variety), sown in starter cups on a 50/50 peat soil-pozzolana substrate and grown at 22° C., are treated at the 1-leaf stage (10 cm height) by spraying with the active ingredient prepared as described above. Plants, used as controls, are treated with the mixture of acetone/tween/DMSO/water not containing the active material. After 24 hours, the plants are contaminated by spraying the leaves with an aqueous suspension of Pyrenophora teres spores (12 000 spores per ml). The spores are collected from a 12-day-old culture. The contaminated barley plants are incubated for 48 hours at 20° C. and at 100% relative humidity, and then for 12 days at 20° C. at 70-80% relative humidity. Grading (% of efficacy) is carried out 14 days after the contamination, in comparison with the control plants.

A further data set deals with Uromyces appendiculatus. Description: In vivo preventive test on Uromyces appendiculatus (bean rust). The note with it: 500 ppm, bean plants, preventive spray, grading 11 days after contamination. As to the method:
(§3) The active ingredients tested are prepared by homogenization in a mixture of acetone/tween/DMSO, and then diluted with water to obtain the desired active material concentration.
Bean plants (“Saxa” variety), sown in starter cups on a 50/50 peat soil-pozzolana substrate and grown at 24° C., are treated at the 2-leaf stage (9 cm height) by spraying with the active ingredient prepared as described above. Plants, used as controls, are treated with the mixture of acetone/tween/DMSO/water not containing the active material.
After 24 hours, the plants are contaminated by spraying the leaves with an aqueous suspension of Uromyces appendiculatus spores (150 000 spores per ml). The spores are collected from infected plants and are suspended in water containing 2.5 ml/l of Tween 80 at 10%. The contaminated bean plants are incubated for 24 hours at 20° C. and at 100% relative humidity, and then for 10 days at 20° C. and at 70-80% relative humidity.
Grading (% of efficacy) is carried out 11 days after the contamination, in comparison with the control plants.

Another data set relates to Septoria tritici. Description: In vivo preventive test on Septoria tritici (leaf spot on wheat). The note with it: 500 ppm, wheat plants, preventive spray, grading 24 days after contamination. On the procedure:
Wheat plants (“Scipion” variety), sown in starter cups on a 50/50 peat soil-pozzolana substrate and grown at 22° C., are treated at the 1-leaf stage (10 cm height) by spraying with the active ingredient prepared as described above. Plants, used as controls, are treated with the mixture of acetone/tween/DMSO/water not containing the active material. After 24 hours, the plants are contaminated by spraying the leaves with an aqueous suspension of cryopreserved Septoria tritici spores (500 000 spores per ml). The contaminated wheat plants are incubated for 72 hours at 18° C. and at 100% relative humidity, and then for 21 days at 90% relative humidity. Grading (% of efficacy) is carried out 24 days after the contamination, in comparison with the control plants.

A further data set relates to Sphaerotheca fuliginea. Briefly: In vivo preventive test on Sphaerotheca fuliginea (powdery mildew on cucurbits). The note with it: 500 ppm, gherkin plants, preventive spray, grading 12 days after contamination. As to the method:
as §1, §2
After 24 hours, the plants are contaminated by spraying the cotyledons with an aqueous suspension of Sphaerotheca fuliginea spores (100 000 spores per ml). The spores are collected from infected plants. The contaminated gherkin plants are incubated at about 20° C. and at 70-80% relative humidity.
(§4) Grading (% of efficacy) is carried out 12 days after the contamination, in comparison with the control plants.

A further data set relates to Alternaria brassicae. Briefly: In vivo preventive test on Alternaria brassicae (leaf spot on radish). The note with it: 500 ppm, radish plants, preventive spray, grading 6 days after contamination. On the procedure:
Radish plants (“Pernod Clair” variety), sown in starter cups on a 50/50 peat soil-pozzolana substrate and grown at 17° C., are treated at the cotyledon stage by spraying with the active ingredient prepared as described above. Plants, used as controls, are treated with the mixture of acetone/tween/DMSO/water not containing the active material. After 24 hours, the plants are contaminated by spraying the cotyledons with an aqueous suspension of Alternaria brassicae spores (50 000 spores per ml). The spores are collected from a 15-day-old culture. The contaminated radish plants are incubated at 20° C. and at 100% relative humidity. Grading (% of efficacy) is carried out 6 days after the contamination, in comparison with the control plants.

The next data set has as its system Puccinia recondita. Briefly: In vivo preventive test on Puccinia recondita (brown rust on wheat). As to conditions: 500 ppm, wheat plants, preventive spray, grading 12 days after contamination. On the procedure:
as §3
Wheat plants (“Scipion” variety), sown in starter cups on a 50/50 peat soil-pozzolana substrate and grown at 22° C., are treated at the 1-leaf stage (10 cm height) by spraying with the active ingredient prepared as described above. Plants, used as controls, are treated with the mixture of acetone/tween/DMSO/water not containing the active material.
After 24 hours, the plants are contaminated by spraying the leaves with an aqueous suspension of Puccinia […] spores (100 000 spores per ml). The spores are collected from an infected plant and are suspended in water containing 2.5 ml/l of Tween 80 at 10%. The contaminated wheat plants are incubated for 24 hours at 20° C. and at 100% relative humidity, and then for 10 days at 20° C. and at 70-80% relative humidity.
as §4

With `Cn1nc(C(F)F)c(C(=O)Nc2cccc3c2C(C)(C)OC3(C)C)c1F` [Example 1], the Eff. % in data set [1] worked out at 92%.
With `Cn1nc(C(F)F)c(C(=O)Nc2cccc3c2C(C)(C)OC3(C)C)c1Cl` [Example 2], the figures for the Eff. % (in [1]; in the data set on Phakopsora pachyrhizi) were 86% and 96%, respectively.
`CCC1(CC)OC(C)c2c(NC(=O)c3cn(C)nc3C(F)F)cccc21` (stereo not drawn) [Example 6]: the Eff. % in the data set on Botrytis cinerea came to 100%; in the data set on Pyrenophora teres, 92%; in the data set on Uromyces appendiculatus, 100%; in the data set on Septoria tritici, 100%; with Sphaerotheca fuliginea, 100%. Also, the logP in data set [2] is 2.9[a].
As for `CCC1(CC)OC(C(C)C)c2c(NC(=O)c3c(C(F)F)nn(C)c3F)cccc21` (stereo not drawn) [Example 8], the logP in [2] was 4.06[a]. In addition, the Eff. % in the data set with Alternaria brassicae is on record as 83%; with Uromyces appendiculatus, 100%; in the data set on Septoria tritici, 86%; with Sphaerotheca fuliginea, 100%; with Puccinia recondita it was 98%.
`CCC1(CC)OC(C)c2c(NC(=O)c3c(C(F)F)nn(C)c3Cl)cccc21` (stereo not drawn) [Example 9]: the logP in [2] is 3.48[a]. Besides, the Eff. % worked out at 100% in the data set with Uromyces appendiculatus, 93% in the data set with Septoria tritici, 94% in the data set on Sphaerotheca fuliginea and 100% in the data set with Puccinia recondita.
`CCC1(CC)OC(C(C)C)c2c(NC(=O)c3cn(C)nc3C(F)F)cccc21` (stereo not drawn) [Example 12]: the logP in [2] is 3.63[a]. The Eff. % is reported as 78% with Alternaria brassicae; 100% with Uromyces appendiculatus; 86% in the data set on Septoria tritici; 100% in the data set with Sphaerotheca fuliginea; 94% in the data set on Puccinia recondita.
For `CCC1(CC)OC(C)c2c(NC(=O)c3c(C(F)F)nn(C)c3F)cccc21` (stereo not drawn) [Example 13], the Eff. % in the data set on Botrytis cinerea came out at 100%; in the data set with Pyrenophora teres it was 83%; in the data set with Uromyces appendiculatus, 100%; with Septoria tritici, 79%; in the data set with Sphaerotheca fuliginea it was 100%; in the data set on Puccinia recondita it was 100%. Further, the logP in data set [2] is 3.27[a].

Values taken from US9375006B2, “5- halogenopyrazole benzofuranyl carboxamides” (BAYER CROPSCIENCE AG, priority 2012, dated 2016).
